# Measured values from patent publication US10092592B2, “Application of cyclic dinucleotide (cGAMP) in anti-tumor field” (FUDAN UNIVERSITY, priority 2014, dated 2018).
# What was measured:
# Format in all cases: in vivo
# [1] = tested on: human hepatocellular carcinoma cell line SMMC-7721; assay: Subcutaneously transplanted tumor of human hepatocellular carcinoma cell line SMMC-7721 in nude mice; conditions: SMMC-7721 in BALB/c nude mice; for Average Tumor Weight: mean ± SD, n = 8
# Method: (§1) Anti-tumor effect of cGAMP (cyclized GMP-AMP) was detected by employing a tumor-bearing mouse model to test inhibition effect of cGAMP on subcutaneously transplanted tumor.
# (§2) Animals: Nude mouse BALB/c, male, with a body weight of 16-18 g, 4-6 weeks old, SPF grade, purchased from SLAC LABORATORY ANIMAL [certification number: SCXK (Shanghai) 2007-0005].
# (§3) Dose: cGAMP was injected into abdominal cavities of mice, and two dose groups were set as followed: 10 mg/kg and 40 mg/kg.
# (§4) Experimental Controls: • Negative control: brine solution • Positive control: 5-fluorouracil (5-FU), with a dose of 20 mg/kg
# (§5) Administration Method: • Administration route: administration by intraperitoneal injection • Administration frequency: once a day for 14 days • Number of each group of animals: 8
# (§6) Tumor cell lines: human gastric carcinoma cell line MNK-45, human lung adenocarcinoma cell line A549, human colorectal carcinoma cell line Lovo, human hepatocellular carcinoma cell line SMMC-7721, human prostatic carcinoma cell line PC-3 and human pancreatic carcinoma cell SW1990, purchased from the Cell Bank of the Chinese Academy of Sciences, are included in the above mentioned tumor cell lines.
# (§7) 1. establishing a tumor-bearing mouse model and allowing intervention, including: cultivating and passaging cells, collecting cells in logarithmic phase, and making into a cell suspension with a concentration of 1.0×10^7/ml, injecting 0.2 ml of the cell suspension into the nude mice through their right arm armpits to make them get a tumor, and randomly dividing the nude mice into four groups: a negative control which is a group injected with brine through intraperitoneal injection, a 5-FU group which is a group injected with 5-FU through intraperitoneal injection, a cGMP-AMP low-dose group which is a group injected with 10 mg/kg of cGMP-AMP through intraperitoneal injection, and a cGMP-AMP high-dose group which is a group injected with 40 mg/kg of cGMP-AMP through intraperitoneal injection, administrating once a day for 14 days, then killing the nude mice and weighing the wts. Of tumor and calculating a tumor inhibition rate, which is calculated by the following equation: tumor inhibition rate[1−average tumor weight of experimental groups/average tumor weight of A group]×100%, wherein the experimental groups are B, C and D groups; separately establishing 6 subcutaneously implanted tumor models: human gastric carcinoma cell line MNK-45, human lung adenocarcinoma cell line A549, human colorectal carcinoma cell line Lovo, human hepatocellular carcinoma cell line SMMC-7721, human prostatic carcinoma cell line PC-3 and human pancreatic carcinoma cell SW1990, and observing the effect of cGAMP; and
# (§8) 2. allowing statistical analysis: representing the data by x±s, processing the data with a software SPSS-10.0, analyzing by one-way ANOVA, comparing the significance of tumor weight differences among the groups, wherein the level of significance is a=0.05.
# [2] = tested on: human pancreatic carcinoma cell SW1990; assay: Subcutaneously transplanted tumor of human pancreatic carcinoma cell SW1990 in nude mice; conditions: SW1990 in BALB/c nude mice; for Average Tumor Weight: mean ± SD, n = 8
# Method: as §1, §2, §3, §4, §5, §6, §7, §8
# [3] = tested on: human colorectal carcinoma cell line Lovo; assay: Subcutaneously transplanted tumor of human colorectal carcinoma cell line Lovo in nude mice; conditions: Lovo in BALB/c nude mice; for Average Tumor Weight: mean ± SD, n = 8
# Method: as §1, §2, §3, §4, §5, §6, §7, §8
# [4] = tested on: human prostatic carcinoma cell line PC-3; assay: Subcutaneously transplanted tumor of human prostatic carcinoma cell line PC-3 in nude mice; conditions: PC-3 in BALB/c nude mice; for Average Tumor Weight: mean ± SD, n = 8
# Method: as §1, §2, §3, §4, §5, §6, §7, §8
# [5] = tested on: human gastric carcinoma cell line MNK-45; assay: Subcutaneously transplanted tumor of human gastric carcinoma cell line MNK-45 in nude mice; conditions: MNK-45 in BALB/c nude mice; for Average Tumor Weight: mean ± SD, n = 8
# Method: as §1, §2, §3, §4, §5, §6, §7, §8
# ICR mice = assay: Acute toxicity, single tail intravenous injection
# Method: The materials are 20 of ICR mice, which are purchased from SLAC LABORATORY ANIMAL [certification number: SCXK (Shanghai) 2007-0005], are half male and half female, have body weights within 18-22 g, are fed with granular feedstuff and are free to find food and drink.
# The method includes: subjecting the ICR mice to single tail intravenous injection of 10 ml/kg cGMAP based on their body weights, namely 2 g/kg, observing toxic reactions and deaths after administration within 14 days.
# [6] = tested on: human lung adenocarcinoma cell line A549; assay: Subcutaneously transplanted tumor of human lung adenocarcinoma cell line A549 in nude mice; conditions: A549 in BALB/c nude mice; for Average Tumor Weight: mean ± SD, n = 8
# Method: as §1, §2, §3, §4, §5, §6, §7, §8
# [7] = high dose 40 mg/kg intraperitoneal once a day for 14 days
# [8] = low dose 10 mg/kg intraperitoneal once a day for 14 days
# [9] = single tail intravenous injection 2 g/kg (10 ml/kg)
# [10] = 20 mg/kg intraperitoneal once a day for 14 days
compound,measurement,setting,value
"Nc1nc2c(ncn2[C@@H]2O[C@@H]3COP(=O)(O)O[C@H]4[C@@H](O)[C@H](n5cnc6c(N)ncnc65)O[C@@H]4COP(=O)(O)O[C@@H]2[C@@H]3O)c(=O)[nH]1 [cGAMP, cyclized GMP-AMP]",Average Tumor Inhibition Rate,[1]; [7],65.2%
same,Average Tumor Weight,[1]; [7],1.089 ± 0.130 g
same,Average Tumor Inhibition Rate,[1]; [8],38.7%
same,Average Tumor Weight,[1]; [8],1.916 ± 0.174 (g)
same,Average Tumor Inhibition Rate,[2]; [7],67.4%
same,Average Tumor Weight,[2]; [7],0.964 ± 0.109 g
same,Average Tumor Inhibition Rate,[2]; [8],44.8%
same,Average Tumor Weight,[2]; [8],1.631 ± 0.133 (g)
same,Average Tumor Inhibition Rate,[3]; [7],55.7%
same,Average Tumor Weight,[3]; [7],1.204 ± 0.122 (g)
same,Average Tumor Inhibition Rate,[3]; [8],36.9%
same,Average Tumor Weight,[3]; [8],1.714 ± 0.137 g
same,Average Tumor Inhibition Rate,[4]; [7],69.6%
same,Average Tumor Weight,[4]; [7],0.932 ± 0.148 g
same,Average Tumor Inhibition Rate,[4]; [8],52.2%
same,Average Tumor Weight,[4]; [8],1.467 ± 0.201 (g)
same,Average Tumor Inhibition Rate,[5]; [7],61.3%
same,Average Tumor Weight,[5]; [7],1.037 ± 0.198 (g)
same,Average Tumor Inhibition Rate,[5]; [8],38.7%
same,Average Tumor Weight,[5]; [8],1.641 ± 0.175 (g)
same,deaths within 14 days after administration,ICR mice; [9],no death was observed
same,"pathological changes in organs by naked eyes on dissection, 15th day",ICR mice; [9],no obvious pathological changes in organs were observed
same,toxic reactions after the single tail intravenous injection,ICR mice; [9],normal physiological activity was observed
same,maximum tolerated dose of intravenous injection MTD,"ICR mice; single tail intravenous injection, observed 14 days",not less than 2 g/kg
same,Average Tumor Inhibition Rate,[6]; [7],59.4%
same,Average Tumor Weight,[6]; [7],1.151 ± 0.121 (g)
same,Average Tumor Inhibition Rate,[6]; [8],44.9%
same,Average Tumor Weight,[6]; [8],1.562 ± 0.102 (g)
"O=c1[nH]cc(F)c(=O)[nH]1 [5-FU, 5-fluorouracil, reference compound]",Average Tumor Inhibition Rate,[1]; [10],72.7%
same,Average Tumor Weight,[1]; [10],0.853 ± 0.082 (g)
same,Average Tumor Inhibition Rate,[2]; [10],76.8%
same,Average Tumor Weight,[2]; [10],0.685 ± 0.086 (g)
same,Average Tumor Inhibition Rate,[3]; [10],71.7%
same,Average Tumor Weight,[3]; [10],0.769 ± 0.101 (g)
same,Average Tumor Inhibition Rate,[4]; [10],76.3%
same,Average Tumor Weight,[4]; [10],0.728 ± 0.102 (g)
same,Average Tumor Inhibition Rate,[5]; [10],76.9%
same,Average Tumor Weight,[5]; [10],0.619 ± 0.214 (g)
same,Average Tumor Inhibition Rate,[6]; [10],70.3%
same,Average Tumor Weight,[6]; [10],0.843 ± 0.210 (g)
